SMILES strings stand for the structures. Where only a bound is given, the exact number is not on record here.

For the first test, the system named is recombinant NL-Rluc virus (NL4-3 with Renilla Luciferase gene) in MT-2 cells. Description: Inhibition of HIV replication (NL-Rluc luciferase reporter virus, MT-2 cells). It counts as cell-based, human immunodeficiency virus (HIV). The settings on record: NL43, 120 h, read-out: Activity. Background: A reporter such as luciferase makes a cellular process visible.
As to `Cc1nc2c(-c3cccc(OCc4ccc(F)cc4)c3)c(-c3ccccc3)nn2c(-c2cc(F)c3c(c2C)CCCO3)c1[C@H](OC(C)(C)C)C(=O)O` [Example 141, (2S)-2-(tert-Butoxy)-2-(7-(8-fluoro-5-methylchroman-6-yl)-3-(3-((4-fluorobenzyl)oxy)phenyl)-5-methyl-2-phenylpyrazolo[1,5-a]pyrimidin-6-yl)acetic acid], the EC50 was above 1 µM.

Consider `Cc1nc2c(-c3ccc4c(cnn4C)c3)c(-c3ccccc3)nn2c(-c2cc(F)c3c(c2C)CCCO3)c1[C@H](OC(C)(C)C)C(=O)O` [Example 142, (2S)-2-(tert-Butoxy)-2-(7-(8-fluoro-5-methylchroman-6-yl)-5-methyl-3-(1-methyl-1H-indazol-5-yl)-2-phenylpyrazolo[1,5-a]pyrimidin-6-yl)acetic acid], for which the EC50 fell in the range of 0.1 to 1 µM.

On to `Cc1nc2c(Cl)c(C)nn2c(-c2cc(F)c3c(c2C)CCCO3)c1C(OC(C)(C)C)C(=O)O` (stereo not drawn) [Example 143, 2-(tert-Butoxy)-2-(3-chloro-7-(8-fluoro-5-methylchroman-6-yl)-2,5-dimethylpyrazolo[1,5-a]pyrimidin-6-yl)acetic acid], for which the EC50 was in the range of 0.1 to 1 µM.

`Cc1nc2c(Cl)c(C)nn2c(-c2ccc3c(c2)CCCO3)c1C(OC(C)(C)C)C(=O)O` (stereo not drawn) [Example 144, 2-(tert-Butoxy)2-(3-chloro-7-(chroman-6-yl)-2,5-dimethylpyrazolo[1,5-a]pyrimidin-6-yl)acetic acid]: the EC50 lay in the range of 0.1 to 1 µM.

Turning to `Cc1nc2cc(-c3cccc(Cl)c3)nn2c(C(C)C)c1[C@H](OC(C)(C)C)C(=O)O` [Example 145, (S)-2-(tert-Butoxy)-2-(2-(3-chlorophenyl)-7-isopropyl-5-methylpyrazolo[1,5-a]pyrimidin-6-yl)acetic acid], the EC50 was above 1 µM.

For `Cc1nc2cc(-c3cccc(Cl)c3)nn2c(CC(C)C)c1[C@H](OC(C)(C)C)C(=O)O` [Example 146, (S)-2-(tert-Butoxy)-2-(2-(3-chlorophenyl)-7-isobutyl-5-methylpyrazolo[1,5-a]pyrimidin-6-yl)acetic acid], the EC50 is above 1 µM.

In the case of `Cc1nc2cc(-c3cccc(Cl)c3)nn2c(-c2ccc(F)cc2)c1[C@H](OC(C)(C)C)C(=O)O` [Example 147, (S)-2-(tert-Butoxy)-2-(2-(3-chlorophenyl)-7-(4-fluorophenyl)-5-methylpyrazolo[1,5-a]pyrimidin-6-yl)acetic acid], the EC50 is above 1 µM.

In the case of `Cc1ccc(-c2c([C@H](OC(C)(C)C)C(=O)O)c(C)nc3cc(-c4cccc(Cl)c4)nn23)cc1` [Example 148, (S)-2-(tert-Butoxy)-2-(2-(3-chlorophenyl)-5-methyl-7-(p-tolyl)pyrazolo[1,5-a]pyrimidin-6-yl)acetic acid], the EC50 lay within 0.1 to 1 µM.

Take `Cc1nc2cc(-c3cccc(Cl)c3)nn2c(C2CCCCC2)c1[C@H](OC(C)(C)C)C(=O)O` [Example 149, (S)-2-(tert-Butoxy)-2-(2-(3-chlorophenyl)-7-cyclohexyl-5-methylpyrazolo[1,5-a]pyrimidin-6-yl)acetic acid]: the EC50 was above 1 µM.

Consider `Cc1nc2cc(-c3ccc4c(c3)CCCC4)nn2c(-c2cc(F)c3c(c2C)CCCO3)c1[C@H](OC(C)(C)C)C(=O)O` [Example 150, (2S)-2-(tert-Butoxy)-2-(7-(8-fluoro-5-methylchroman-6-yl)-5-methyl-2-(5,6,7,8-tetrahydronaphthalen-2-yl)pyrazolo[1,5-a]pyrimidin-6-yl)acetic acid], for which the EC50 is below 0.1 µM.

On to `Cc1nc2cc(-c3ccc4c(c3)CCCC4)nn2c(-c2ccc3c(c2)CCCO3)c1[C@H](OC(C)(C)C)C(=O)O` [Example 151, (S)-2-(tert-Butoxy)-2-(7-(chroman-6-yl)-5-methyl-2-(5,6,7,8-tetrahydronaphthalen-2-yl)pyrazolo[1,5-a]pyrimidin-6-yl)acetic acid], for which the EC50 was below 0.1 µM.

As for `Cc1nc2cc(-c3ccc4c(c3)CCCC4)nn2c(-c2ccc(F)cc2)c1[C@H](OC(C)(C)C)C(=O)O` [Example 152, (S)-2-(tert-Butoxy)-2-(7-(4-fluorophenyl)-5-methyl-2-(5,6,7,8-tetrahydronaphthalen-2-yl)pyrazolo[1,5-a]pyrimidin-6-yl)acetic acid], the EC50 is above 1 µM.

Take `Cc1ccc(-c2c([C@H](OC(C)(C)C)C(=O)O)c(C)nc3cc(-c4ccc5c(c4)CCCC5)nn23)cc1` [Example 153, (S)-2-(tert-Butoxy)-2-(5-methyl-2-(5,6,7,8-tetrahydronaphthalen-2-yl)-7-(p-tolyl)pyrazolo[1,5-a]pyrimidin-6-yl)acetic acid]: the EC50 was 0.1 to 1 µM.

Turning to `Cc1nc2cc(-c3ccc4c(c3)CCCC4)nn2c(-c2ccc3c4c(ccnc24)CCO3)c1[C@H](OC(C)(C)C)C(=O)O` [Example 154, (2S)-2-(tert-Butoxy)-2-(7-(2,3-dihydropyrano[4,3,2-de]quinolin-7-yl)-5-methyl-2-(5,6,7,8-tetrahydronaphthalen-2-yl)pyrazolo[1,5-a]pyrimidin-6-yl)acetic acid], the EC50 is above 1 µM.

Turning to `Cc1nc2cc(-c3ccc4c(c3)CCCC4)nn2c(-c2ccc(Cl)cc2)c1[C@H](OC(C)(C)C)C(=O)O` [Example 155, (S)-2-(tert-Butoxy)-2-(7-(4-chlorophenyl)-5-methyl-2-(5,6,7,8-tetrahydronaphthalen-2-yl)pyrazolo[1,5-a]pyrimidin-6-yl)acetic acid], the EC50 was in the range of 0.1 to 1 µM.

For the compound `Cc1ccc(-c2c([C@H](OC(C)(C)C)C(=O)O)c(C)nc3cc(-c4ccc5c(c4)CCCC5)nn23)c(Cl)c1` [Example 156, (2S)-2-(tert-Butoxy)-2-(7-(2-chloro-4-methylphenyl)-5-methyl-2-(5,6,7,8-tetrahydronaphthalen-2-yl)pyrazolo[1,5-a]pyrimidin-6-yl)acetic acid], the EC50 is above 1 µM.

Regarding `Cc1nc2cc(-c3ccc4c(c3)CCCC4)nn2c(-c2ccc(Cl)cc2F)c1[C@H](OC(C)(C)C)C(=O)O` [Example 157, (2S)-2-(tert-Butoxy)-2-(7-(4-chloro-2-fluorophenyl)-5-methyl-2-(5,6,7,8-tetrahydronaphthalen-2-yl)pyrazolo[1,5-a]pyrimidin-6-yl)acetic acid], the EC50 lay in the range of 0.1 to 1 µM.

For the compound `Cc1nc2c(C)c(-c3cccc(Cl)c3)nn2c(-c2cc(F)c3c(c2C)CCCO3)c1[C@H](OC(C)(C)C)C(=O)O` [Example 158, (2S)-2-(tert-Butoxy)-2-(2-(3-chlorophenyl)-7-(8-fluoro-5-methylchroman-6-yl)-3,5-dimethylpyrazolo[1,5-a]pyrimidin-6-yl)acetic acid], the EC50 lay in the range of 0.1 to 1 µM.

For the compound `Cc1nc2c(C)c(-c3cccc(-c4cc(F)c5c(c4C)CCCO5)c3)nn2c(-c2cc(F)c3c(c2C)CCCO3)c1[C@H](OC(C)(C)C)C(=O)O` [Example 159, (2S)-2-(tert-Butoxy)-2-(7-(8-fluoro-5-methylchroman-6-yl)-2-(3-(8-fluoro-5-methylchroman-6-yl)phenyl)-3,5-dimethylpyrazolo[1,5-a]pyrimidin-6-yl)acetic acid], the EC50 is below 0.1 µM.

With `COc1ccncc1-c1cccc(-c2nn3c(-c4cc(F)c5c(c4C)CCCO5)c([C@H](OC(C)(C)C)C(=O)O)c(C)nc3c2C)c1` [Example 160, (2S)-2-(tert-Butoxy)-2-(7-(8-fluoro-5-methylchroman-6-yl)-2-(3-(4-methoxypyridin-3-yl)phenyl)-3,5-dimethylpyrazolo[1,5-a]pyrimidin-6-yl)acetic acid], the EC50 was below 0.1 µM.

`Cc1nc2c(C)c(-c3cccc(-c4ccc5c(cnn5C)c4)c3)nn2c(-c2cc(F)c3c(c2C)CCCO3)c1[C@H](OC(C)(C)C)C(=O)O` [Example 161, (2S)-2-(tert-Butoxy)-2-(7-(8-fluoro-5-methylchroman-6-yl)-3,5-dimethyl-2-(3-(1-methyl-1H-indazol-5-yl)phenyl)pyrazolo[1,5-a]pyrimidin-6-yl)acetic acid]: the EC50 was below 0.1 µM.

Turning to `Cc1nc2c(C)c(-c3cccc(-c4ccccc4F)c3)nn2c(-c2cc(F)c3c(c2C)CCCO3)c1[C@H](OC(C)(C)C)C(=O)O` [Example 162, (2S)-2-(tert-Butoxy)-2-(7-(8-fluoro-5-methylchroman-6-yl)-2-(2′-fluoro-[1,1′-biphenyl]-3-yl)-3,5-dimethylpyrazolo[1,5-a]pyrimidin-6-yl)acetic acid], the EC50 was below 0.1 µM.

In the case of `Cc1nc2c(C)c(-c3ccccc3)nn2c(-c2cc(F)c3c(c2C)CCCO3)c1[C@H](OC(C)(C)C)C(=O)O` [Example 163, (2S)-2-(tert-Butoxy)-2-(7-(8-fluoro-5-methylchroman-6-yl)-3,5-dimethyl-2-phenylpyrazolo[1,5-a]pyrimidin-6-yl)acetic acid], the EC50 is below 0.1 µM.

As for `Cc1nc2c(C)c(-c3cccc(-c4cccc(F)c4)c3)nn2c(-c2cc(F)c3c(c2C)CCCO3)c1[C@H](OC(C)(C)C)C(=O)O` [Example 164, (2S)-2-(tert-Butoxy)-2-(7-(8-fluoro-5-methylchroman-6-yl)-2-(3′-fluoro-[1,1′-biphenyl]-3-yl)-3,5-dimethylpyrazolo[1,5-a]pyrimidin-6-yl)acetic acid], the EC50 is below 0.1 µM.

Consider `Cc1cc(-c2cccc(-c3cc4nc(C)c([C@H](OC(C)(C)C)C(=O)O)c(-c5cc(F)c6c(c5C)CCCO6)n4n3)c2)ccc1F` [Example 165, (2S)-2-(tert-Butoxy)-2-(2-(4′-fluoro-3′-methyl-[1,1′-biphenyl]-3-yl)-7-(8-fluoro-5-methylchroman-6-yl)-5-methylpyrazolo[1,5-a]pyrimidin-6-yl)acetic acid], for which the EC50 was below 0.1 µM.

As for `Cc1cc(F)ccc1-c1cccc(-c2cc3nc(C)c([C@H](OC(C)(C)C)C(=O)O)c(-c4cc(F)c5c(c4C)CCCO5)n3n2)c1` [Example 166, (2S)-2-(tert-Butoxy)-2-(2-(4′-fluoro-2′-methyl-[1,1′-biphenyl]-3-yl)-7-(8-fluoro-5-methylchroman-6-yl)-5-methylpyrazolo[1,5-a]pyrimidin-6-yl)acetic acid], the EC50 is below 0.1 µM.

The same test, now with this note: NL43, 120 h, read-out: EC50 μM.
With `Cc1nc2c(-c3cccc(OCc4ccc(F)cc4)c3)c(-c3ccccc3)nn2c(-c2cc(F)c3c(c2C)CCCO3)c1[C@H](OC(C)(C)C)C(=O)O` [Example 141, (2S)-2-(tert-Butoxy)-2-(7-(8-fluoro-5-methylchroman-6-yl)-3-(3-((4-fluorobenzyl)oxy)phenyl)-5-methyl-2-phenylpyrazolo[1,5-a]pyrimidin-6-yl)acetic acid], the EC50 stood at 3.3 µM.

For the compound `Cc1ccc(-c2c([C@H](OC(C)(C)C)C(=O)O)c(C)nc3cc(-c4cccc(Cl)c4)nn23)cc1` [Example 148, (S)-2-(tert-Butoxy)-2-(2-(3-chlorophenyl)-5-methyl-7-(p-tolyl)pyrazolo[1,5-a]pyrimidin-6-yl)acetic acid], the EC50 was determined as 0.88 µM.

`COc1ccncc1-c1cccc(-c2nn3c(-c4cc(F)c5c(c4C)CCCO5)c([C@H](OC(C)(C)C)C(=O)O)c(C)nc3c2C)c1` [Example 160, (2S)-2-(tert-Butoxy)-2-(7-(8-fluoro-5-methylchroman-6-yl)-2-(3-(4-methoxypyridin-3-yl)phenyl)-3,5-dimethylpyrazolo[1,5-a]pyrimidin-6-yl)acetic acid]: the EC50 was 0.01 µM.

For `Cc1nc2c(C)c(-c3ccccc3)nn2c(-c2cc(F)c3c(c2C)CCCO3)c1[C@H](OC(C)(C)C)C(=O)O` [Example 163, (2S)-2-(tert-Butoxy)-2-(7-(8-fluoro-5-methylchroman-6-yl)-3,5-dimethyl-2-phenylpyrazolo[1,5-a]pyrimidin-6-yl)acetic acid], the EC50 is 0.2 µM.

Source of the values: patent US8633200B2, “Inhibitors of human immunodeficiency virus replication” (priority 2010, dated 2014).
